Where two headings read alike, the source gives them in different places. Bridge positions count the residues as written; N and C are the ends. Peptide text beside a SMILES is read from it.
Tests used:
HUVECs [1] = test: TUNEL assay, HUVECs; assay type: cell-based, human; conditions: 0.40 μM, n = 3, p < 0.0001
Source text: (§1) Periodic boundary conditions were used, and bonds were restrained by applying the LINCS algorithm to their equilibrium position. Initial structures were solvated with three-point model water molecules in a cubic box of 1.0 nm to fully cover the protein system in water, following periodic boundary conditions (PBC). The produced system for each peptide was neutralized through the “genion tool” plugin of the GROMACS package by adding ions Na+ and Cl−. Then, the system was minimized for 50000 iterations using the steepest descent (SD) algorithm and using velocity rescaling (modiﬁed Berendsen) temperature coupling and Parrinello-Rahman pressure coupling methods, simulated under an isothermal-isobaric ensemble (NPT) for 5 ns at a constant temperature, the pressure of 300 K, and 1 atm, respectively. The NVT and NPT equilibration was carried out for 50000 steps. The minimization and equilibration procedures were executed, and finally, one system of the peptide was subjected to a 200 ns production run of MD simulations utilizing 2 fs as the time step and coordinates of all atoms were recorded in the form of .trr GROMACS trajectory ﬁle every 10 ps.
(§2) 2 × 10^3 HUVE or 4T1 cells were cultured in DMEM and RPMI-1640 media, respectively, supplemented with 10% (v/v) FBS overnight. Then, the cells were incubated in the media supplemented with 5% FBS, with PBS or C-VGB3 (0.40 μM). […]

HUVECs [2] = test: MTT assay, HUVECs; assay type: cell-based, human; conditions: VEGF 20 ng·mL^−1, C-VGB3 0–0.91 μM, n = 3, read-out: half-inhibitory concentration (IC50), cell viability
Experimental: Figure 4 Inhibition of EC proliferation and tubulogenesis by C-VGB3 through abrogation of VEGFR2-mediated signaling pathways. (A) MTT assay was performed to investigate C-VGB3 effect on the proliferation of ECs. C-VGB3 (0–0.91 μM) was used with (20 ng·mL^−1) or without VEGF. The control cells were treated with no peptide. After 24 and 48 h, the absorbance was measured at 570 nm utilizing an ELISA plate reader (Space Fax 2100, Awareness, Westport, CT, USA). Error bars indicate ± SEM. n = 3; * p = 0.02, ** p = 0.001, *** and ### p = 0.0001, **** and #### p < 0.0001, ns = not significant; one-way ANOVA. (B) The anti-tubulogenesis effect of C-VGB3 in VEGF (20 ng·mL^−1)-induced HUVECs. Image analysis performed by Wimasis image analysis software is illustrated in the bottom panel. Error bars indicate ±SEM. n = 3; *** 0.0004 ≤ p ≤ 0.0001; unpaired Student’s t-test. To evaluate the mechanism by which C-VGB3 diminished cell proliferation and tube formation, Western blot analysis was performed for HUVECs. […]
The effects of C-VGB3 and L-VGB3 on the cell survival of HUVE and 4T1 cell lines were investigated using the MTT assay, as previously described, with some modifications. […] After 24 and 48 h of incubation at 37 °C, the absorbance at 570 nm was recorded using an ELISA plate reader (Space Fax 2100, Awareness, Palm City, FL, USA). […]

ectodomain of VEGFR1 = conditions: ref [9], cited from earlier work
Experimental: Our previous study has shown that a peptide reproducing helix α1 of VEGFB can unexpectedly interfere with VEGF binding to VEGFR2 and, consequently, inhibit VEGF-stimulated angiogenesis and tumor growth. In the present study, we extend this observation using another peptide (C-VGB3) that mimics loop2 and its adjacent region of VEGFB. […] For instance, competitive binding of C-VGB3 (100 μM) with biotinyl ...

4T1 cells = test: TUNEL assay, 4T1 cells; assay type: cell-based, murine; conditions: 0.40 μM, n = 3, p = 0.0002
Source text: as §1, §2

CC(C)C[C@@H]1NC(=O)CNC(=O)[C@H](CC(=O)O)NC(=O)[C@H](CC(=O)O)NC(=O)[C@@H]2CCCN2C(=O)[C@@H]2CCCN2C(=O)[C@H](CCCNC(=N)N)NC(=O)[C@@H](NC(=O)[C@@H](N)CCC(=O)O)CSSC[C@@H](C(=O)O)NC1=O [C-VGB3] (H-ECRPPDDGLC-OH; disulfide 2-10)
TUNEL fluorescent labeling (HUVECs [1]): fluorescent-labeled more than control cells | IC50 (HUVECs [2]; 24 h): 510 nM | IC50 (HUVECs [2]; 48 h): 380 nM | displacement of btVEGF165 (ectodomain of VEGFR1; 100 μM, ectodomain of VEGFR1): 63% | binding to VEGFR1 (ectodomain of VEGFR1): bind and neutralize VEGFR1 | TUNEL fluorescent labeling (4T1 cells): fluorescent-labeled more than control cells

Reference: publication PMC10305181, “A VEGFB-Based Peptidomimetic Inhibits VEGFR2-Mediated PI3K/Akt/mTOR and PLCγ/ERK Signaling and Elicits Apoptotic, Antiangiogenic, and Antitumor Activities” (Pharmaceuticals, 2023)
